The values below come from PMC6969517 (Proceedings of the National Academy of Sciences of the …, 2019).

For this assay, the target named is T1, ShkA (Caulobacter vibrioides, UniProt Q9ABT2).
T1 sequence (Q9ABT2 1-514): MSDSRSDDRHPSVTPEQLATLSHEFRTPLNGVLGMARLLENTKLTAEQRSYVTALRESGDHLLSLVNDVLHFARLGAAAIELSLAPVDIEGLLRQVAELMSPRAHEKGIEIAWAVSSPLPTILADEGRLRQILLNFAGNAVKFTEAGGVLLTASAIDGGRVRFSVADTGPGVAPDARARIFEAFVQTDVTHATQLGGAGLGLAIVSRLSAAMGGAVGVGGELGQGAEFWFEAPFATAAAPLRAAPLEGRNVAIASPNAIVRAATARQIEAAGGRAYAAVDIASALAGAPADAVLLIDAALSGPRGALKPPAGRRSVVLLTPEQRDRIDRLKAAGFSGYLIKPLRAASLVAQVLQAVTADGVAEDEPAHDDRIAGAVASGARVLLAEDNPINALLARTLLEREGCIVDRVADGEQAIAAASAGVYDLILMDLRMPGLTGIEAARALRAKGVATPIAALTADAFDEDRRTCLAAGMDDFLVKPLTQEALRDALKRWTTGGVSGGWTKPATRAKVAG
The assay is described as follows: FCA and ITC. Type of assay: biochemical.

What is called pKi is the Ki on a negative log10 scale, so that one unit is a factor of ten.

pKi: −log10 of the molar value.

As for `Nc1ncnc2c1ncn2[C@@H]1O[C@H](COP(=O)(O)OP(=O)(O)O)[C@@H](O)[C@H]1O` [ADP], the pKi is around 4.22.
